In PMC11510591, “In Vitro Evaluation of Pharmacokinetic Properties of Selected Dual COX-2 and 5-LOX Inhibitors” (Pharmaceuticals, 2024):
Like-named read-outs stand apart in the source and are kept apart here.

Legend:
[1] = BMC, Brij 35 mobile phase pH 5.5, 36.5 °C, C18 column
Method: BMC was performed using polyoxyethylene lauryl ether (Brij 35) as the most frequently used surfactant in this method. All other parameters (pH, temperature, and salinity) were set to achieve physiological conditions. The retention of compounds is mostly influenced by their lipophilicity and their interactions with both the modified stationary phase and the micelles in the mobile phase. Therefore, the elution behavior is determined by the combined effects of micelles, the stationary phase, and water. An important factor for this method is finding the optimal balance between organic solvent and aqueous phase.
BMC was performed on an Agilent 1200 Series (Agilent Technologies, Santa Clara, CA, USA) supplied with a binary pump, manual injector (20 µL), and DAD detector (190–950 nm) using a C18 column (ZORBAX Extend-C18 Analytical 4.6 × 150 mm; 5 µm, Agilent Technologies, Santa Clara, CA, USA). Mobile phase was a combination of aqueous phase (40 mmol/L solution of Brij 35 in 7 mmol/L Na2HPO4) and acetonitrile (70:30, v/v), and the mobile phase pH was adjusted to 5.5 using o-phosphoric acid. […] Retention factors (k) were calculated according to Equation (1). Column dead time (t0) was the retention time of DMSO at 220 nm, while tR was the retention time of a tested compound. k = (tR − t0)/t0(1)

[2] = PAMPA test (hexadecane membrane), passive gastrointestinal absorption; assay type: in vitro ADME; conditions: donor pH 5.5, acceptor pH 7.4, 5 h, room temperature; for Papp at 5 h, 0.05 mM: PAMPA, read-out: Pe (effective passive permeability coefficient)
Method: The PAMPA test uses a 96-well plate coated with an impregnated filter material, forming an artificial membrane that separates donor and acceptor compartments. Egg lecithin in dodecane is commonly used to simulate membrane lipids, while hexadecane is effective for mimicking gastrointestinal membranes. […] Therefore, hexadecane dissolved in hexane was chosen in this study.
The phosphate buffer solution was prepared by dissolving 0.5292 g of NaH2PO4 × H2O and 0.0234 g of Na2HPO4 in purified water (200 mL). The phosphate buffer was divided into two portions, and the pH was adjusted to pH 5.5 and pH 7.4 using o-phosphoric acid. The donor solutions were prepared by diluting the stock solutions (5 mM DMSO solutions) with the buffer pH 5.5 to obtain the final concentration of 0.05 mM (the DMSO concentration in the donor solutions was 1%), while the acceptor solution was prepared as a 1% DMSO solution in the buffer pH 7.4. The use of DMSO as a cosolvent in PAMPA is necessary in cases of low-soluble compounds. It is usually used in concentrations up to 5% [25, 55, 56, 57].
The PAMPA test was performed according to the literature procedure using a 96-well microtiter polycarbonate filter plate (Merck Millipore, Carrigtwohill, Ireland) that was impregnated with 15 µL of a hexadecane/hexane (5:95, v/v) solution [52]. Donor solutions (300 µL per well) were transferred into each well of the donor plate. Acceptor solution was transferred into each well (300 µL per well) of the acceptor plate (MSSACCEPTOR, Millipore, Burlington, MA, USA) and covered by the donor plate to create a PAMPA sandwich. The system was incubated at room temperature for 5 h at a vibratory mixer. After incubation, the PAMPA sandwich was dissociated, and concentrations of all tested compounds in each well, as well as in the starting solutions, were determined using the HPLC method (Section 3.3.1).
The concentrations of tested compounds in the starting solutions, as well as in the donor and acceptor sections after incubation, were determined by the HPLC method on the Dionex Ultimate 3000 (Thermo Fisher Scientific, Waltham, MA, USA) equipped with a quaternary pump, autosampler, and DAD detector using a ZORBAX Eclipse XDB-C18 4.6 × 150 mm, 5 µm column (Agilent Technologies, Santa Clara, CA, USA).
R represents the retention, which is defined as the fraction of the tested compound retained in the PAMPA membrane (filters and plate materials), CD(t) is the concentration of a tested compound in a donor compartment after incubation time t, CA(t) is the concentration of a tested compound in an acceptor compartment after incubation time t, while CD(0) represents the concentration of a tested compound in a donor compartment at the beginning of the incubation (starting solution).

[3] = system: CD-1 mouse liver microsomes; conditions: pH 7.4; for Peak Area, t0: 0 min; for Peak Area, t: 30 min
Method: Microsomal stability (and thus susceptibility to metabolism) was tested using microsomes derived from CD-1 mouse liver. According to the applied protocol, both phases of metabolism were activated by the addition of cofactors NADPH and UDP-GlcUA. […] Stock solutions of all tested compounds (5 mM DMSO solutions) were diluted with 0.1 M potassium phosphate buffer pH 7.4 to obtain 0.1 mM solutions, which were further incubated according to the protocol. In order to activate both the 1st and 2nd phases of metabolism, NADPH and UDP-GlcUA were used as cofactors. Tested compounds were incubated at 37 °C for 30 min, and the incubation was quenched immediately after the addition of cofactors (t0) and after the defined incubation time (t) by mixing 100 µL of corresponding incubation mixtures with 200 µL of cold acetonitrile. All compounds were tested in duplicates, and their concentrations were determined using the HPLC-MS/MS method (Section 3.7.1).
The HPLC-MS/MS analysis was performed on the UHPLC chromatograph ACELLA (Thermo Fisher Scientific Inc., Madison, WI, USA), coupled to a triple quadrupole mass spectrometer TSQ Quantum Access MAX (Thermo Fisher Scientific Inc., Madison, WI, USA) with a heated electrospray ionization (HESI) interface. The column used was Zorbax Extend C18 (150 mm × 4.6 mm, 5 µm; Agilent Technologies), which was thermostated at 25 °C. The mobile phase consisted of acetonitrile and 0.1% formic acid (60:40, v/v), with a flow rate of 500 µL/min. The injection volume was 10 µL.

[4] = target: T1, human serum albumin (HSA) (Homo sapiens, UniProt P02768); assay type: binding; conditions: CHIRALPAK HSA column, ammonium acetate buffer pH 7.0/acetonitrile 85:15, 25 °C
T1 construct: purchased Sigma-Aldrich
T1 sequence (P02768 25-609): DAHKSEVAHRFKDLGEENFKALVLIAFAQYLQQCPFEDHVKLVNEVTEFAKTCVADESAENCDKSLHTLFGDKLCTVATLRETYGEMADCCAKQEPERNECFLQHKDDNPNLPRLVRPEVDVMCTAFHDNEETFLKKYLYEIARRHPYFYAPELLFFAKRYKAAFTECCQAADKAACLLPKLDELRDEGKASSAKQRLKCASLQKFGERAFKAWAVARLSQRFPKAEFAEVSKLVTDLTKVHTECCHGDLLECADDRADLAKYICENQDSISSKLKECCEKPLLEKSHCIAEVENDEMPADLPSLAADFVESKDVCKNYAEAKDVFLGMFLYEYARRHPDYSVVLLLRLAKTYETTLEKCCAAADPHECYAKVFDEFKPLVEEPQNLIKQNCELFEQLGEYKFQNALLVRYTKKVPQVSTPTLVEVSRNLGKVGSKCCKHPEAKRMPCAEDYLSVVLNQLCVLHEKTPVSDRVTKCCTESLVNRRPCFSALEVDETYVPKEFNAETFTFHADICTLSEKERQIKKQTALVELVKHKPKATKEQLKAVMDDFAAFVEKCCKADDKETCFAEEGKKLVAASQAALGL
Method: Recently, interactions of many newly synthesized structurally diverse compounds with HSA were successfully studied using this technique. The degree of binding of the tested compounds to HSA was evaluated based on their retention behavior on the stationary phase modified with HSA. The logarithmic values of retention factors (logk) were used to evaluate indirectly and compare the drug–HSA interaction.
HPAC analysis was performed on an Agilent 1200 Series chromatograph (Agilent Technologies, Santa Clara, CA, USA). […] The mobile phase consisted of ammonium acetate buffer (pH 7.0; 0.01 M) and acetonitrile (85:15, v/v). The flow rate was 0.6 mL/min, the temperature was set to 25 °C, and the detection of tested compounds was carried out at 283 nm. Tested compounds were dissolved in DMSO (at a concentration of 1 mg/mL), further diluted with the mobile phase to a final concentration of 0.05 mg/mL, and analyzed in triplicate. The HPAC conditions were selected not only with the aim of achieving satisfactory retention characteristics of all synthesized compounds but also taking into account recommendations of a column manufacturer. Retention factors were calculated using Equation (1), where t0 (column dead time) was the retention time of DMSO at 220 nm.

[5] = target: T1, human serum albumin (HSA); assay: Differential pulse voltammetry (DPV), interaction with HSA; assay type: binding; conditions: compound 0.05 mmol/L, PBS pH 7.4, HSA 0.05–10 μmol/L
Method: The electrochemical oxidation of the tested compounds at a concentration of 0.05 mmol/L in PBS buffer pH 7.4 was investigated by differential pulse voltammetry (DPV). […] For all tested compounds, a preliminary study of the interaction with HSA was performed at a concentration of 0.05 mmol/L and different HSA concentrations (0.05–10 μmol/L) using DPV. […] It has been reported that the shift in the potential of an electroactive ligand is a suitable criterion to determine the mode of the macromolecule–ligand interaction. In this context, a positive shift in potential is an indication of hydrophobic interaction of investigated compounds with HSA [34]. The decrease in peak current could be due to the formation of a non-electroactive supramolecular compound by the drug–protein interaction, which reduces the concentration of free drug.
The voltammetric measurements were carried out with the µAutolab analyzer (EcoChemie, Utrecht, The Netherlands). A three-electrode system with a GCE working electrode, an Ag/AgCl reference electrode, and a Pt-auxiliary electrode was used. Before each experiment, the GCE was manually polished with an aqueous slurry of Al2O3 powder (particle size of 0.05 μm) on a smooth polishing pad, sonicated in deionized water, and then treated in absolute ethanol. Phosphate buffer saline (PBS) pH 7.4 was used as the supporting electrolyte. The experiments were carried out with deaerated PBS buffer. A stock solution of HSA in PBS at a concentration of 0.1 mmol/L was used. […] The interaction between tested compounds and HSA was examined in PBS solution, using solutions of tested compounds in a concentration of 0.05 mmol/L and HSA solution with a concentration in the range of 0.05–10 μmol/L.
The percentage of free compound (Equation (4)) was calculated from the ratio of the current intensity (IINT) for a given compound concentration (0.05 mmol/L) in the presence of albumin to the signal obtained at the same compound concentration only in the presence of the supporting electrolyte (PBS buffer) (IC).

SMILES	Retention factors (k) [1]	Retention factors (k) ([1]; listed as diclofenac)	Papp at 5 h, 0.05 mM [2] [×10⁻⁶ cm/s]	–logPe [2]	–logPe ([2]; listed as diclofenac)	Peak Area, t0 [3]	Peak Area, t [3]	–logPe ([2]; listed as flurbiprofen)	Retention Factors (logk) [4]	Retention Factors (logk) ([4]; listed as flurbiprofen)	% Bound Drug [5]	ΔE, DPV peak potential shift after interaction with HSA [5]	–logPe ([2]; listed as ibuprofen)	–logPe ([2]; listed as indomethacin)
O=C(O)Cc1ccccc1Nc1c(Cl)cccc1Cl [Diclofenac, diclofenac]	8.25 ± 0.00	8.25	> 400	<3.40	≤ 3.46	126.2 ± 2.8 ×10^3	99.7 ± 5.3 ×10^3	–	–	–	–	–	–	–
CC(C(=O)O)c1ccc(-c2ccccc2)c(F)c1 (stereo not shown) [Flurbiprofen, flurbiprofen]	7.14 ± 0.02	–	> 400	<3.40	–	–	–	≤ 3.46	11.03 ± 0.02	11.03	Electrochemically inactive	Electrochemically inactive	–	–
CC(C)Cc1ccc(C(C)C(=O)O)cc1 (stereo not shown) [Ibuprofen, ibuprofen]	13.36 ± 0.00	–	> 400	<3.40	–	–	–	–	–	–	–	–	≤ 3.46	–
COc1ccc2c(c1)c(CC(=O)O)c(C)n2C(=O)c1ccc(Cl)cc1 [Indomethacin, indomethacin, reference compound]	10.20 ± 0.03	–	386	3.41 ± 0.05	–	241.9 ± 2.5 ×10^3	206.9 ± 9.0 ×10^3	–	–	–	–	–	–	≤ 3.46
